# Results as given in patent publication US3954793A, “1-(2-Propynyl)-1 H-indazole compounds” (priority 1973, dated 1976).
# “And” between values parts separate entries of the source, which are not always exact repeats. Equal entries are not always repeated.
# Experiments:
# [1] = tested on: Swiss albino, white male mice; assay: acute toxicity and synergism of acute toxicity in mice; format: in vivo; conditions: GS 13005 (71 mg/kg) in 0.1 ml corn oil
# How it was run: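 Male Swiss albino mice (23 to 27 g, five to six weeks), eight per dose, dosed intraperitoneally in corn oil: dimetilan alone at 4 to 32 mg per kg, synergists alone at 1000 mg/kg with deaths counted at 72 hours. For synergism, synergist given 1 hour before insecticide, lethality observed for at least 6 hours.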
# [2] = tested on: German male cockroaches (Blatella Germanicus); assay: topical application to thorax, 24 hour mortality of German male cockroaches; format: in vivo; conditions: cockroaches
# Description: The synergistic effect with mobam of synergist compounds I-B, II-H, II-K and IV-C is further illustrated by the 24 hour mortality data of German male cockroaches (Blatella Germanicus) shown in Table XXXX. The synergists and insecticide were diluted in acetone and applied in small droplets to the thorax of the insect. These doses of synergist alone gave zero percent insect mortality.
# The synergistic effect with GS 13005 of compounds I-B, II-H, II-K, II-P, II-Q, II-R and IV-C is illustrated by the 24 hour mortality of German male cockroaches shown in Table XXXXI. These doses of synergist alone caused zero percent insect mortality.
# [3] = tested on: polyvalent resistant (CH strain) houseflies; assay: whole plant or invertebrate; format: in vivo
# Description: The effect of O-(2-propynyl) oximes with Dimetilan and with GS 13798 was obtained from tests on polyvalent resistant (CH strain) houseflies that had been chilled and to the dorsal region of which was applied an acetone solution of synergist and insecticide at a ratio of two to one. Duplicate tests were performed using 10 four to five-day old female houseflies per test. After dosage, the flies were put in a plastic petri dish with cotton soaked in a sugar-water solution. These doses of insecticide used without synergist caused 10-40% mortality.
# In Table IX, and in the tables following it, the doses of topically applied insecticides and of synergists unless otherwise noted are expressed as micrograms per fly (μg/fly).
# The effect of compounds II-C, II-D and II-E with Dimetilan and GS 13798 was determined, following the procedure of Example 5, from tests on polyvalent resistant (CH strain) houseflies. These doses of insecticide used without synergist caused 10-40% mortality.
# The synergistic effect with GS 13005 of compounds I-A, I-B, I-D, I-E, I-F, I-G and I-I was determined from topical application tests to IN/WHO strain, Rutgers A strain and polyvalent CH strain houseflies using the procedures of Example 5. The percent kills of the IN/WHO strain flies after 24 hours are shown in Table XXVIII; of the Rutgers A strain, in Table XXIX; and of the polyvalent CH strain, in Table XXX. The doses of insecticide alone to the CH strain files caused 10-40% mortality.
# The synergistic effect with Diazinon and GS 13005 of various of the benzyl 2-propynyl ethers identified in Tables II and IIa was determined by topical application tests on IN/WHO strain, and Rutgers A strain and polyvalent, resistant, CH strain houseflies using the procedures of Example 5. The percent kills after 24 hours of IN/WHO strain flies are shown in Table XXXI; of Rutgers A strain flies, in Table XXXII; and of CH strain flies, in Table XXXIII. The doses of insecticide alone to the CH strain flies caused 10-40% mortality.
# The synergistic effect with pyrethrum of various synergist compounds was determined by topical application tests on polyvalent, resistant CH strain houseflies following the procedure of Example 5. Application of the insecticide alone caused 10-40% mortality.
# [4] = tested on: IN/WHO strain house flies; assay: topical application, percent kill after 24 hours, susceptible IN/WHO strain; format: in vivo, female)
# How it was run: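 Insecticide plus synergist in acetone, 1.0 μl applied to the thorax of CO2-anesthetized 3-to-5-day-old female IN/WHO house flies, doses in μg/fly. Flies held 10 per dish, 3-5 dishes per treatment, with skim milk. Percent mortality scored after 24 h.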
# houseflies = assay: topical application with Diazinon, Table XXVII (strain not given); format: in vivo
# [5] = tested on: Wilson strain house flies; format: in vivo, Wilson strain (susceptible)
# Description: The required solutions of the insecticide and of the synergist compound were prepared in acetone at a concentration of 1 milligram per milliliter. One-pint wide mouth glass jars were coated with the appropriate insecticide-synergist combination by rolling the jars containing aliquots of the appropriate solutions diluted to three milliliters with acetone to deposit, by evaporation, a film of the test materials. The flies were transferred under carbon dioxide anesthesia and held in the jar at room temperature. Perforated aluminum foil was used to cover the jars and to hold cotton saturated with 10% sugar solution. Counts were made at intervals, but the recorded mortality was based on 24-hour kill, rather than knockdown. All prostrate non-moving flies were considered dead. A determination was then made of the contact synergistic ratio [SR], which is the ratio of the LC50 of insecticide alone to the LC50 of the insecticide when applied together with the synergist. The LC50 of the insecticide was estimated from a log-probit plot of percent kill versus dosage. […] The LC50 of the combination of insecticide and synergist was determined at a synergist to insecticide parts by weight ratio of five to one.
# [6] = tested on: Rutgers A strain house flies; assay: topical application, percent kill after 24 hours, resistant Rutgers A strain; format: in vivo, female)
# How it was run: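 Synergist plus mobam, Diazinon or GS 13005 dissolved in acetone, applied as 1.0 μl to the thorax of CO2-anaesthetised 3-to-5 day old female Rutgers A (resistant) house flies; doses in μg/fly. Flies held 10 per dish, 3-5 dishes per treatment, with skim milk; mortality scored at 24 h.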
compound,measurement,setting,value
"COc1nn(CSP(=S)(OC)OC)c(=O)s1 [GS 13005, S-((2-methoxy-5-oxo-Δ^2-1,3,4-thiadiazolin-4-yl)methyl) O,O-dimethyl phosphorodithioate, reference compound]","number of mice dead, control (GS 13005 alone)",[1],5
same,"24 hour mortality, GS 13005 alone","[2]; GS 13005 dose 0.08, synergist 0, 1440 min",15% and 23% and 10%
same,"mortality, insecticide used without synergist","[3]; house fly, in vivo, topical or ocular, 24 h",10-40%
same,"percent kill after 24 hours, GS 13005 alone","[4]; GS 13005 0.05, synergist 0 μg/fly",0%
same,"percent kill after 24 hours, GS 13005 alone","[4]; GS 13005 0.10, synergist 0 μg/fly, 1440 min",19% and 16% and 12%
C#CCON=Cc1ccc(OC)c(OC)c1 [I-A],"percent kill after 24 hours, with Diazinon (Table XXVII)",houseflies; Diazinon 5 + synergist 10 μg/fly,45%
same,mortality at 10 µg/fly,"houseflies; Musca domestica, topical, 24 h, Diazinon 0, synergist 10 μg/fly, read-out: percent kill after 24 hours, synergist alone (Table XXVII)",0%
same,"Contact Synergistic Ratio, Pyrolan","[5]; LC50 pyrolan alone / LC50 with synergist, synergist to insecticide 5:1 by weight",30
same,"Contact Synergistic Ratio, Carbaryl",[5]; in vivo,200
same,"percent kill after 24 hours, with Dimetilan","[3]; Dimetilan 2 + synergist 4 μg/fly, CH strain",100%
same,"percent kill after 24 hours, with GS 13005","[3]; GS 13005 1 + synergist 2 μg/fly, CH strain",45%
same,mortality at 10 µg/fly,"[3]; Musca domestica, topical, 24 h, insecticide 0, synergist 10 μg/fly, CH strain, read-out: percent kill after 24 hours, synergist alone",0%
same,"percent kill after 24 hours, with pyrethrum","[3]; Pyrethrum 2 + synergist 4 μg/fly, CH strain",15%
same,"percent kill after 24 hours, synergist alone","[3]; insecticide 0, synergist 10 μg/fly, CH strain",0%
"CNC(=O)Oc1cccc2sccc12 [Mobam, 4-benzo(b) thienyl-N-methylcarbamate, reference compound]","percent kill after 24 hours, Mobam alone","[6]; Mobam 0.15, synergist 0 μg/fly",0%
same,"percent kill after 24 hours, Mobam alone","[6]; Mobam 0.30, synergist 0 μg/fly",0%
same,"percent kill after 24 hours, Mobam alone","[6]; Mobam 0.40, synergist 0 μg/fly",7%
same,"percent kill after 24 hours, Mobam alone","[6]; Mobam 0.60, synergist 0 μg/fly",4%
same,"24 hour mortality, Mobam alone","[2]; Mobam dose 0.12, synergist 0",10%
same,"24 hour mortality, Mobam alone","[2]; Mobam dose 0.16, synergist 0",30%
same,"percent mortality 24 hours, Mobam alone",[4]; Mobam 0.13 μg/fly alone,0%
same,"percent mortality 24 hours, Mobam alone","[4]; Mobam 0.25 μg/fly alone, 1440 min",27%
same,"percent mortality 24 hours, Mobam alone","[4]; Mobam 0.50 μg/fly alone, 1440 min",83%
same,"percent mortality 24 hours, Mobam alone","[4]; Mobam 1.0 μg/fly alone, 1440 min",93%
same,"percent kill after 24 hours, Mobam alone","[4]; Mobam 0.05, synergist 0 μg/fly",0%
same,"percent kill after 24 hours, Mobam alone","[4]; Mobam 0.10, synergist 0 μg/fly",zero
same,"percent kill after 24 hours, Mobam alone","[4]; Mobam 0.10, synergist 0 μg/fly, 1440 min",0%
same,"percent kill after 24 hours, Mobam alone","[4]; Mobam 0.20, synergist 0 μg/fly, 1440 min",6% and 2% and 9%
